Columns and labels:
U138 MG tumor xenografts = assay: In vivo biodistribution: tumor Gd content (ICP-MS); details: SCID mice, mean ± SD
Experimental: (§1) The 6- to 8-week-old male non-obese diabetic (NOD)/severe-combined immunodeficient (SCID) mice were used to establish MDA-MB-231 (EGFR-overexpressing) and U138 MG (non-EGFR-overexpressing) xenograft models ([35]). The mice were obtained from the Experimental Animal Center of Tongji Medical College, Huazhong University of Science and Technology, and all the experimental procedures involving animals were further approved by the Animal Care and Use Committee of Huazhong University of Science and Technology. The mice were housed separately in polycarbonate cages and provided with food and water. Tumors were grown under the skin by s.c. injection of 1 × 10^6-3 × 10^6 cells. The mice were randomized into groups for the biodistribution assay and MR imaging in vivo when the xenografts reached 5 to 7 mm in diameter. All procedures were approved by the Institutional Animal Care and Use Committee of Huazhong University of Science and Technology (approval no.270193).
(§2) The tumor-bearing SCID mice were randomly divided into groups, with 6 animals in each group, an injected via the tail vein with 50 μM Gd/kg EBP-Gd-DO3A, EBP-(Gd-DO3A)3, or Gadovist. At the selected time points (0.25, 0.5, 1, 2, 4, 8, 24, and 48 h) after injection, blood was collected and centrifuged to separate the plasma. Then, organ and tissue samples, including the kidneys, liver, heart, and tumor, were collected and weighed. The tissue samples were liquefied for 1 week and then transferred into centrifuge tubes and centrifuged at 14,000 rpm for 5 min. The resulting supernatants were diluted tenfold with deionized water and centrifuged again under the same conditions. The Gd concentration in the samples was measured by ICP-MS ([36]).

[1] = system: MDA-MB-231 tumor xenografts; assay: In vivo biodistribution: tumor Gd content (ICP-MS); details: SCID mice, mean ± SD; for Gd content in the MDA-MB-231 tumor tissues (peak): 4 h after single i.v. 50 μM Gd/kg
Experimental: as §1, §2

MDA-MB-231 cells = assay: Cellular Gd content after incubation (cell binding assay, ICP-MS); assay type: cell-based, human; details: MDA-MB-231 (EGFR-overexpressing), 50 μM Gd, 37 °C, mean ± SD (n = 6)
Experimental: (§3) The binding of EBP-Gd-DO3A and EBP-(Gd-DO3A)3 to the receptor on MDA-MB-231, A549, SGC-7901, SW480, and U138 MG cells was compared with that of Gadovist. The cells were seeded into 100 mm × 20 mm cell culture dishes at a density of approximately 1 × 10^6 cells per dish and incubated with EBP-Gd-DO3A, EBP-(Gd-DO3A)3 or Gadovist at a Gd concentration of 50 μM for 1 h or 12 h at 37 °C. After incubation, the cells were washed once with PBS followed by mild acidic buffer (50 mM glycine, 150 mM NaCl (pH 3.0)) at 4 °C for 5 min. Then, the cells were washed twice with PBS, and the cellular Gd content was measured by ICP-MS.
(§4) Cells were seeded into 100 mm×20 mm cell culture dishes at a density of approximately 1×10^6 cells per dish and incubated with EBP-Gd-DO3A, EBP-(Gd-DO3A)3 or Gadovist® at Gd concentrations of 50 μM at 37°C for the indicated time points. The Gd content in the cell lysates was quantified by ICP-MS. The values are presented as the mean ± SD (n = 6).

SGC-7901 cells = assay: as above; assay type: cell-based, human; details: SGC-7901, 50 μM Gd, 37 °C, mean ± SD (n = 6)
Experimental: as §3, §4

A549 cells = assay: as above; assay type: cell-based, human; details: A549, 50 μM Gd, 37 °C, mean ± SD (n = 6)
Experimental: as §3, §4

SW480 cells = assay: as above; assay type: cell-based, human; details: SW480, 50 μM Gd, 37 °C, mean ± SD (n = 6)
Experimental: as §3, §4

U138MG cells = assay: as above; assay type: cell-based, human; details: U138MG (non-EGFR-overexpressing), 50 μM Gd, 37 °C, mean ± SD (n = 6)
Experimental: as §3, §4

[2] = system: MDA-MB-231 and U138 MG tumor xenografts; assay: In vivo MR imaging of tumor xenografts; parameters: species or system SCID mice; details: i.v. 50 μM Gd/kg, 7 T T1-weighted MRI, n = 6; conjugates in MDA-MB-231 xenografts; imaged up to 4 h
Experimental: as §1, with “All procedures were approved by the Institutional Animal Care and Use Committee of Huazhong University of Science and Technology (approval no.270193).” left out
Tumor-bearing SCID mice were randomly grouped and scanned with a Bruker Biospec 7 T MRI scanner (Bruker Corp.) with a volume radio frequency (RF) coil. […] The parameters of the 2D T1-weighted gradient echo sequence were TR/TE = 151.2/1.9 ms, FOV = 3.0 cm, slice thickness = 1.2 mm, slice number = 20, average = 1, flip angle = 80°, and matrix = 128 × 128 ([28], [37]).The CNR were calculated with standard methods (CNR = [Stumor-Sbackground]/SDnoise).

[3] = 0.5 h after single i.v. 50 μM Gd/kg
[4] = 2 h after single i.v. 50 μM Gd/kg
[5] = 24 h after single i.v. 50 μM Gd/kg

| Gd content in the U138 MG tumors (U138 MG tumor xenografts; [3]) | Gd content in the U138 MG tumors (U138 MG tumor xenografts; [4]) | Gd content in the U138 MG tumors (U138 MG tumor xenografts; [5]) | Gd content in the MDA-MB-231 tumor tissues [1, 3] | Gd content in the MDA-MB-231 tumor tissues [1, 4] | Molecule | Gd content in the MDA-MB-231 tumor tissues [1, 5] | Concentration of cellular Gd (MDA-MB-231 cells; 1 h) | Concentration of cellular Gd (MDA-MB-231 cells; 12 h) | Concentration of cellular Gd (SGC-7901 cells; 1 h) | Concentration of cellular Gd (SGC-7901 cells; 12 h) | Concentration of cellular Gd (A549 cells; 1 h) | Concentration of cellular Gd (A549 cells; 12 h) | Concentration of cellular Gd (SW480 cells; 1 h) | Concentration of cellular Gd (SW480 cells; 12 h) | Concentration of cellular Gd (U138MG cells; 1 h) | Concentration of cellular Gd (U138MG cells; 12 h) | time that tumor contrast enhancement persisted after injection [2] | Gd content in the MDA-MB-231 tumor tissues (peak) [1] |
| --- | --- | --- | --- | --- | --- | --- | --- | --- | --- | --- | --- | --- | --- | --- | --- | --- | --- | --- |
| 8.70 ± 1.24 nM/g tissue | 5.76 ± 0.45 nM/g tissue | 0.90 ± 0.23 nM/g tissue | 3.36 ± 0.91 nM/g tissue | 1.26 ± 0.46 nM/g tissue | O=C([O-])CN1CCN(CC(=O)[O-])CCN([C@H](CO)[C@H](O)CO)CCN(CC(=O)[O-])CC1.[Gd+3] (racemic) [Gadovist, reference compound] | no detectable Gd | 0.18 ± 0.06 μM/10^6 cells | 0.13 ± 0.02 μM/10^6 cells | 0.15 ± 0.05 μM/10^6 cells | 0.16 ± 0.03 μM/10^6 cells | 0.25± 0.05 μM/10^6 cells | 0.18 ± 0.04 μM/10^6 cells | 0.19 ± 0.07 μM/10^6 cells | 0.20 ± 0.07 μM/10^6 cells | 0.20 ± 0.04 μM/10^6 cells | 0.24 ± 0.05 μM/10^6 cells | 2 h | – |
| – | – | – | – | – | CMYIEALDKYAC [EBP-(Gd-DO3A)3] | 19.42 ± 1.76 nM/g tissue | 1.17 ± 0.12 μM/10^6 cells | 2.79 ± 0.18 μM/10^6 cells | 1.01± 0.08 μM/10^6 cells | 2.31 ± 0.14 μM/10^6 cells | 1.04 ± 0.06 μM/10^6 cells | 2.66 ± 0.15 μM/10^6 cells | 1.05 ± 0.09 μM/10^6 cells | 2.65 ± 0.11 μM/10^6 cells | 0.15 ± 0.04 μM/10^6 cells | 0.74 ± 0.17 μM/10^6 cells | – | 30.70 ± 1.90 nM/g tissue |
| – | – | – | – | – | CMYIEALDKYAC [EBP-Gd-DO3A] | 9.95 ± 1.85 nM/g tissue | 0.43 ± 0.05 μM/10^6 cells | 1.16 ± 0.10 μM/10^6 cells | 0.35 ± 0.04 μM/10^6 cells | 1.12 ± 0.16 μM/10^6 cells | 0.37 ± 0.07 μM/10^6 cells | 1.24 ± 0.19 μM/10^6 cells | 0.31 ± 0.06 μM/10^6 cells | 1.01 ± 0.13 μM/10^6 cells | 0.09 ± 0.01 μM/10^6 cells | 0.25 ± 0.07 μM/10^6 cells | – | 17.70 ± 2.10 nM/g tissue |

Source: PMC12810539, “EGFR-targeted gadolinium contrast agents for enhanced molecular magnetic resonance imaging of tumors” (The Journal of Biological Chemistry, 2025)
